Test results taken from the supplement of paper PMC10307832.

Experiments:
Assay in all cases: relative viability (nuclei count vs DMSO), 5 days (fraction); higher = more cells survive
[1] = compound: COC1=CC=C(C=C1)COC2=C(C=C(C=C2)CC3=CN=C(N=C3N)N)OC [GW-2580] + O=C(CCCCCCC(=O)Nc1ccccc1)NO [Vorinostat] (partner 1 µM)
Outline: (§1)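 For relative viability, nuclei counts in treated wells were divided by those in vehicle wells. Lung cancer cell lines had been pin-tool dosed in 1536-well plates the day after seeding and cultured for 5 days, then fixed and stained in one step (final 0.05% Triton X-100, 1% formaldehyde, 1 ug/ml Hoechst) and imaged at 4×. Doses were one drug alone or a fixed anchor-drug dose plus five library-drug doses (not always all listed) in √10 steps, and values are duplicate-plate medians.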

[2] = compound: Cc1cnc(Nc2ccc(OCCN3CCCC3)cc2)nc1Nc1cccc(S(=O)(=O)NC(C)(C)C)c1 [Fedratinib] + CC1(C)CCC(c2ccc(Cl)cc2)=C(CN2CCN(c3ccc(C(=O)NS(=O)(=O)c4ccc(N[C@H](CCN5CCOCC5)CSc5ccccc5)c(S(=O)(=O)C(F)(F)F)c4)cc3)CC2)C1 [Navitoclax] (partner 0.5 µM)
Outline: as §1

[3] = compound: Cc1cnc(Nc2ccc(OCCN3CCCC3)cc2)nc1Nc1cccc(S(=O)(=O)NC(C)(C)C)c1 [Fedratinib] + CS(=O)(=O)N1CCN(Cc2cc3nc(-c4cccc5[nH]ncc45)nc(N4CCOCC4)c3s2)CC1 [Pictilisib] (partner 1 µM)
Outline: as §1

[4] = compound: Cc1cnc(Nc2ccc(OCCN3CCCC3)cc2)nc1Nc1cccc(S(=O)(=O)NC(C)(C)C)c1 [Fedratinib] + C[C@]1(O)C[C@@H](c2nc(-c3ccc4ccc(-c5ccccc5)nc4c3)c3c(N)nccn32)C1 [Linsitinib] (partner 1 µM)
Outline: as §1

[5] = compound: COC1=CC=C(C=C1)COC2=C(C=C(C=C2)CC3=CN=C(N=C3N)N)OC [GW-2580] + COc1cccc2cc(-c3nc([C@H]4CC[C@H](C(=O)O)CC4)n4ncnc(N)c34)[nH]c12 [OSI-027] (partner 0.5 µM)
Outline: as §1

| Cell Line | relative viability ([1]; first compound 0.08 µM) | relative viability ([1]; first compound 0.8 µM) | relative viability ([1]; first compound 2.53 µM) | relative viability ([1]; first compound 8 µM) | relative viability ([2]; first compound 0.1 µM) | relative viability ([2]; first compound 0.3162 µM) | relative viability ([2]; first compound 1 µM) | relative viability ([3]; first compound 0.1 µM) | relative viability ([3]; first compound 0.3162 µM) | relative viability ([3]; first compound 1 µM) | relative viability ([4]; first compound 0.1 µM) | relative viability ([4]; first compound 0.3162 µM) | relative viability ([4]; first compound 1 µM) | relative viability ([5]; first compound 0.08 µM) | relative viability ([5]; first compound 0.8 µM) | relative viability ([5]; first compound 2.53 µM) | relative viability ([5]; first compound 8 µM) |
| --- | --- | --- | --- | --- | --- | --- | --- | --- | --- | --- | --- | --- | --- | --- | --- | --- | --- |
| HCC-827 | 0.652 | 0.915 | 0.828 | 0.832 | 0.949 | 1.01 | 1.06 | 0.99 | 0.927 | 0.941 | 0.964 | 1.01 | 0.948 | 0.848 | 0.906 | 0.278 | 0.687 |
| HOP-62 | 0.736 | 0.73 | 0.539 | 0.731 | 1.03 | 1.01 | 1.07 | 0.809 | 0.709 | 0.531 | 0.837 | 0.975 | 0.884 | 0.905 | 0.801 | 0.847 | 0.985 |
| IA-LM | – | 1.21 | 0.851 | 1.07 | 0.884 | 0.721 | 0.972 | 0.26 | 0.288 | 0.199 | 0.547 | 0.546 | 0.786 | – | – | – | – |
| LC-2-ad | 0.728 | 0.751 | 0.76 | 0.712 | 0.436 | 0.45 | 0.3 | 0.422 | 0.531 | 0.115 | 0.838 | 0.85 | 0.71 | 0.88 | 0.867 | 0.87 | 0.78 |
| LCLC-97TM1 | 0.806 | 0.74 | 0.659 | 0.684 | 0.275 | 0.394 | 0.412 | 0.196 | 0.169 | 0.15 | 0.151 | 0.192 | 0.203 | 0.556 | 0.614 | 0.624 | 0.426 |
| LCLC-103H | 0.753 | 0.851 | 0.791 | 0.671 | – | – | – | 0.536 | 0.678 | 0.512 | 1.19 | 1.1 | 0.966 | 0.482 | 0.434 | 0.482 | 0.458 |
| LK-2 | 0.242 | 0.28 | 0.205 | 0.311 | 0.831 | 1.34 | 0.777 | – | 0.563 | 0.399 | 0.349 | 0.733 | 0.495 | 0.208 | 0.19 | 0.208 | 0.189 |
| LOU-NH91 | 0.925 | 1.03 | 0.801 | 0.943 | 0.588 | 0.786 | 0.575 | 0.432 | 0.53 | 0.516 | 0.844 | 1.08 | 0.831 | 0.706 | 0.808 | 0.678 | 0.721 |
| LU99A | 0.646 | 0.522 | 0.435 | 0.528 | 0.824 | 0.834 | 0.666 | 0.325 | 0.369 | 0.217 | 0.521 | 0.513 | 0.48 | 0.294 | 0.263 | 0.306 | 0.34 |
